According to patent publication US20190031665A1, “DERIVATIVES OF PYRROLOIMIDAZOLE OR ANALOGUES THEREOF WHICH ARE USEFUL FOR THE TREATMENT OF INTER ALIA CANCER” (EMCURE PHARMACEUTICALS LIMITED, priority 2016, published 2019):

How the values were obtained:
[1] = biological target: T1, human indoleamine 2,3-dioxygenase 1 (hIDO1) (Homo sapiens, UniProt P14902); assay: In-vitro human indoleamine 2,3-dioxygenase 1 (IDO1) enzyme assay; format: biochemical; settings: for inhibition at 1 µM: hIDO1 enzyme at 1.0 μM concentration; for inhibition at 10 µM: hIDO1 enzyme at 10.0 μM concentration; for IC50: hIDO1 enzyme
T1 construct: His tag (N); purchased BPS Bioscience, San Diego, Calif., USA; host or cells: E. coli
T1 sequence (P14902 whole entry): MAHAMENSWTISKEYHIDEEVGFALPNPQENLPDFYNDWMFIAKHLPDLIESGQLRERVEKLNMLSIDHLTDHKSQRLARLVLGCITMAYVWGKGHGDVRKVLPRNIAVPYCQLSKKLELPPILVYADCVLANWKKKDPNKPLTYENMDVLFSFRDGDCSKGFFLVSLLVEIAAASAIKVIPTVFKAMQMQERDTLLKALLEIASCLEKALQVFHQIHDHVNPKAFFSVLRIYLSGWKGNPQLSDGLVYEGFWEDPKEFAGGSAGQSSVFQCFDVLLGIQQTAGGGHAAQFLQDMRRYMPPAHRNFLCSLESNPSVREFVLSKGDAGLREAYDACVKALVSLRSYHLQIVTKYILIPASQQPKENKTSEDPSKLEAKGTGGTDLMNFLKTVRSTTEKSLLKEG
Method in brief: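 His-tagged hIDO1 (E. coli, 50 ng) incubated with 80 μM tryptophan, 10 mM ascorbate, 10 μM methylene blue, catalase and 0.01% Tween-20 in 50 mM sodium phosphate pH 6.5, 60 min, 37 °C. Piperidine converts N-formylkynurenine to fluorescent NFK-PIP (ex 400/em 500 nm); IC50 by nonlinear regression.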

[2] = biological target: T2, human tryptophan 2,3-dioxygenase (hTDO) (Homo sapiens, UniProt P48775); assay: In-vitro human tryptophan 2,3-dioxygenase (TDO) enzyme assay; format: biochemical; settings: for inhibition at 1 µM: hTDO enzyme at 1.0 μM concentration
T2 construct: His tag (N); purchased BPS Bioscience, San Diego, Calif., USA; host or cells: E. coli
T2 sequence (P48775 whole entry): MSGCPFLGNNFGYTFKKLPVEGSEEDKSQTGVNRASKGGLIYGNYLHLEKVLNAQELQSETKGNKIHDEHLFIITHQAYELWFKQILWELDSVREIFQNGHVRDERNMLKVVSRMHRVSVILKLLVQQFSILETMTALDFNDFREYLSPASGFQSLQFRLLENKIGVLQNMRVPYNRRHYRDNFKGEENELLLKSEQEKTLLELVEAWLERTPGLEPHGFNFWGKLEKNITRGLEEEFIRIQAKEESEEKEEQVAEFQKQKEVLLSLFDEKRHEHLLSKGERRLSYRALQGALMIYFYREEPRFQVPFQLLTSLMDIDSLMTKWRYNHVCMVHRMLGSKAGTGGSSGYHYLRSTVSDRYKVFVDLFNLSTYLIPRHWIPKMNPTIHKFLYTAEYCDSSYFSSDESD
Method in brief: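 N-His-tagged hTDO expressed in E. coli (125 ng) incubated with 200 μM L-tryptophan, 100 mM sodium phosphate pH 7.0, 0.01% Tween-20, 100 μM ascorbate, 60 min at 37 °C. Product converted with 200 mM piperidine (65 °C, 20 min) to NFK-PIP, fluorescence 400/500 nm; IC50 by nonlinear regression.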

Row | inhibition at 1 µM [1] | inhibition at 1 µM [2] | inhibition at 10 µM [1] | IC50 [1] | inhibition at 10 µM ([2]; hTDO enzyme at 10.0 μM concentration) | SMILES
1 | ≤ 50% | ≥ 50% |  |  |  | CC1=C(c2ccccc2F)C(CC(=O)C2CCC(O)CC2)n2cncc21 (single isomer, unassigned) [Example 97]
2 | ≥ 50% | ≥ 50% | ≥ 50% |  |  | CC1=C(c2ccccc2)C(CC(=O)c2ccc3c(c2)CCCC3)n2cncc21 (stereo not shown) [Example 47, 2-(7-methyl-6-phenyl-5H-pyrrolo[1,2-c]imidazol-5-yl)-1-(5,6,7,8-tetrahydronaphthalen-2-yl)ethan-1-one]
3 | ≤ 50% | ≥ 50% | ≥ 50% |  |  | CC1=C(c2ccccc2)C(CC(=O)c2ccsc2)n2cncc21 (stereo not shown) [Example 45, 2-(7-methyl-6-phenyl-5H-pyrrolo[1,2-c]imidazol-5-yl)-1-(thiophen-3-yl)ethan-1-one]
4 | ≥ 50% | ≤ 50% | ≥ 50% | < 500 nM |  | CC1=C(c2ccccc2)C(CC(O)C2CCC(=NO)CC2)n2cncc21 (stereo not shown) [Example 178, 4-[1-Hydroxy-2-(7-methyl-6-phenyl-5H-pyrrolo[1,2-c]imidazol-5-yl)-ethyl]-cyclohexanone oxime]
5 | ≥ 50% | ≥ 50% | ≥ 50% | < 500 nM |  | CC1=C(c2ccccc2)C(CC(=O)c2ccc(-c3ccc(C)cc3)cc2)n2cncc21 (stereo not shown) [Example 62]
6 | ≤ 50% | ≥ 50% | ≥ 50% |  |  | CC1=C(c2ccccc2)C(CC(=O)C2CCC(C(=O)NC3CCCCC3)CC2)n2cncc21 (stereo not shown) [Example 123]
7 | ≤ 50% | ≤ 50% | ≥ 50% |  |  | CC1=C(c2ccccc2)C(CC(O)c2ccc(-c3ccncc3)cc2)n2cncc21 (stereo not shown) [Example 59]
8 | ≥ 50% | ≥ 50% | ≥ 50% | < 500 nM |  | CC1=C(c2ccccc2)C(CC(=O)c2ccc(C(=O)Nc3ccccc3)cc2)n2cncc21 (stereo not shown) [Example 77]
9 | ≥ 50% | ≥ 50% | ≥ 50% | < 500 nM |  | CC1=C(c2ccccc2)C(C[C@H](O)C2CCC(C(=O)Nc3ccc(Cl)cc3C)CC2)n2cncc21 (stereo partly shown) [Example 120]
10 | ≤ 50% | ≤ 50% | ≥ 50% |  |  | CC1=C(c2ccccc2C)C(CC(O)C2CCCCC2)n2cncc21 (stereo not shown) [Example 105]
11 |  | ≥ 50% | ≥ 50% | > 500 nM | ≥ 50% | CC1=C(c2ccccc2)C(CC(=O)C2CCCCC2)n2cncc21 (stereo not shown) [Example 88, 1-Cyclohexyl-2-(7-methyl-6-phenyl-5H-pyrrolo[1,2-c]imidazol-5-yl)-ethanone]
